From patent US20100183527A1, “Cosmetic Compositions Comprising Sclareolide and Hesperidin Methyl Chalcone” (COGNIS IP MANAGEMENT GMBH, priority 2007, published 2010)

Tests used:
Assay type in all cases: cell-based
[1] = system: Melanocytes (B16 cell line); assay: Melanogenesis stimulation assay, level of melanin (optical density at 475 nm); details: 3 days incubation, mean +/- SEM
Protocol: (§1) Melanocytes (B16 cell line) were inoculated in standard medium of cell culture with foetal calf serum (FCS). After an incubation of 3 day at 37° C. and CO2=5%, growth medium was exchanged for standard medium with a range of concentrations for each active ingredient to be tested and a control without ingredient. After an incubation of 3 days, the level of melanin was measured by recording the optical density at 475 nm. After washing the cells by a balanced salt solution, and homogenisation in a solution of 0.1 M NaOH, the number of viable cells was determined by evaluation of the level of cellular proteins (Bradford's method). The results are expressed in % against control (cell culture medium without compound) as a mean+/−SEM (Standard Error of Mean) on 2 or 3 assays, each in triplicate.

[2] = system: Melanocytes (B16 cell line); assay: Melanogenesis stimulation assay for combination, level of intracellular melanin (optical density at 475 nm); details: for rate of melanin: mean +/- SEM
Protocol: (§2) Melanocytes (B16 cell line) were inoculated in standard medium of cell culture with foetal calf serum (FCS). After an incubation for 3 days at 37° C. and CO2=5%, growth medium was exchanged for standard medium with a range of concentrations for each active ingredient to be tested and a control without ingredient. Combinations of active ingredients were tested on the same cultures, in parallel with active ingredients alone. After an incubation of 3 days, the cells were washed by a balanced salt solution, and homogenised in a solution of 0.1 M NaOH. The number of viable cells was determined by evaluation of the level of cellular proteins (Bradford's method) and the level of intracellular melanin was measured by recording the optical density at 475 nm.
(§3) The results are expressed in % against control (cell culture medium without compound) as a mean+/−SEM (Standard Error of Mean) on 5 assays, each in triplicate.

[3] = system: Melanocytes (B16 cell line); assay: Number of viable cells by level of cellular proteins (Bradford's method), Example 2 combination; details: for Amount of cellular proteins: mean +/- SEM
Protocol: as §2, §3

[4] = system: Melanocytes (B16 cell line); assay: Number of viable cells by level of cellular proteins (Bradford's method), Example 1; details: 3 days incubation, mean +/- SEM
Protocol: as §1

[5] = Sclareolide 0.000025 % (w/v) alone
[6] = Sclareolide 0.000050 % (w/v) alone

## CC1(C)CCC[C@]2(C)[C@H]3CC(=O)O[C@]3(C)CC[C@@H]12 [Sclareolide, (3aR,5aS,9aS,9bR)— decahydro-3a,6,6,9a-tetramethyl naphtho(2,1-b)furan-2(1H)-one]
[1]; Dose 0.0003 % (w/v)
  Melanin level: 174 +/− 55 %/control
[1]; Dose 0.001 % (w/v)
  Melanin level: 286 +/− 83 %/control
[2]; [5]
  rate of melanin: 116 +/− 7 %/control
[2]; [6]
  rate of melanin: 120 +/− 6 %/control
[2]; very low doses (Table 2)
  rate of melanin synthesis / efficacy (in words): increased the rate of melanin synthesis
[3]; [5]
  Amount of cellular proteins: 97 +/− 18 %/control
[3]; [6]
  Amount of cellular proteins: 106 +/− 10 %/control
[3]; concentrations of Table 3, tested separately or mixed
  toxic effects, decrease of amount of cellular proteins (in words): do not show any toxic effects
[4]; Dose 0.0003 % (w/v)
  Protein level (rate of cellular proteins): 89 +/− 11 %/control
[4]; Dose 0.001 % (w/v)
  Protein level (rate of cellular proteins): 83 +/− 17 %/control
